Source: patent US20080292619A1, “Pharmaceutical Composition Containing Meltrin Antagonist” (MOCHIDA PHARMACEUTICAL CO., LTD., priority 2004, published 2008)

system: human meltrin α RNA; assay: Suppression of human meltrin α expression by antisense compound in RD cell (real time PCR); assay type: cell-based; settings: 50 nM; RD cell; corrected by GAPDH
Procedure, shortened: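 RD cells transfected with heat-denatured antisense oligodeoxynucleotide plus Lipofectin in Opti-MEM for 4 h at 37° C, then cultured 18 h. Meltrin α RNA quantified by TaqMan RT-PCR against plasmid standard curve, GAPDH-corrected; suppression vs untreated cells, rated +/++/+++ for ≥30/50/70%.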

Substance	suppression rate of expression, 50 nM
H138: cactcgctgagttgactggg (CACTCGCTGAGTTGACTGGG; antisense; DNA, all phosphorothioate, methylation of C not given here)	++ (“++” when the suppression rate was at least 50%)
H139 + 10: tgcacgtggggcccggtgga (TGCACGTGGGGCCCGGTGGA; antisense; DNA, all phosphorothioate, methylation of C not given here)	+ (“+” when the suppression rate was at least 30%)
H139 + 11: gtgcacgtggggcccggtgg (GTGCACGTGGGGCCCGGTGG; antisense; DNA, all phosphorothioate, methylation of C not given here)	+ (“+” when the suppression rate was at least 30%)
H139 + 12: ggtgcacgtggggcccggtg (GGTGCACGTGGGGCCCGGTG; antisense; DNA, all phosphorothioate, methylation of C not given here)	+ (“+” when the suppression rate was at least 30%)
H139 + 13: aggtgcacgtggggcccggt (AGGTGCACGTGGGGCCCGGT; antisense; DNA, all phosphorothioate, methylation of C not given here)	+ (“+” when the suppression rate was at least 30%)
H139 + 15: ctaggtgcacgtggggcccg (CTAGGTGCACGTGGGGCCCG; antisense; DNA, all phosphorothioate, methylation of C not given here)	+++ (“+++” when the suppression rate was at least 70%)
H139 + 16: gctaggtgcacgtggggccc (GCTAGGTGCACGTGGGGCCC; antisense; DNA, all phosphorothioate, methylation of C not given here)	++ (“++” when the suppression rate was at least 50%)
H139 + 17: cgctaggtgcacgtggggcc (CGCTAGGTGCACGTGGGGCC; antisense; DNA, all phosphorothioate, methylation of C not given here)	+ (“+” when the suppression rate was at least 30%)
H139 + 18: acgctaggtgcacgtggggc (ACGCTAGGTGCACGTGGGGC; antisense; DNA, all phosphorothioate, methylation of C not given here)	++ (“++” when the suppression rate was at least 50%)
H139 + 19: gacgctaggtgcacgtgggg (GACGCTAGGTGCACGTGGGG; antisense; DNA, all phosphorothioate, methylation of C not given here)	+ (“+” when the suppression rate was at least 30%)
H139: gcccggtggaggggaggaag (GCCCGGTGGAGGGGAGGAAG; antisense; DNA, all phosphorothioate, methylation of C not given here)	+ (“+” when the suppression rate was at least 30%)
H140: ggacgctaggtgcacgtggg (GGACGCTAGGTGCACGTGGG; antisense; DNA, all phosphorothioate, methylation of C not given here)	+ (“+” when the suppression rate was at least 30%)
H141 + 15: cctaagtgcaggcttggctg (CCTAAGTGCAGGCTTGGCTG; antisense; DNA, all phosphorothioate, methylation of C not given here)	+ (“+” when the suppression rate was at least 30%)
H142: gcctgcctaagtgcaggctt (GCCTGCCTAAGTGCAGGCTT; antisense; DNA, all phosphorothioate, methylation of C not given here)	++ (“++” when the suppression rate was at least 50%)
H143 + 5: ggggtttggcttacaggtcc (GGGGTTTGGCTTACAGGTCC; antisense; DNA, all phosphorothioate, methylation of C not given here)	++ (“++” when the suppression rate was at least 50%)
H143 + 9: gaggggggtttggcttacag (GAGGGGGGTTTGGCTTACAG; antisense; DNA, all phosphorothioate, methylation of C not given here)	+ (“+” when the suppression rate was at least 30%)
H143 + 10: tgaggggggtttggcttaca (TGAGGGGGGTTTGGCTTACA; antisense; DNA, all phosphorothioate, methylation of C not given here)	+ (“+” when the suppression rate was at least 30%)

Substance	suppression rate of expression, 50 nM
H143 + 12: tctgaggggggtttggctta (TCTGAGGGGGGTTTGGCTTA; antisense; DNA, all phosphorothioate, methylation of C not given here)	+ (“+” when the suppression rate was at least 30%)
H143 + 14: cttctgaggggggtttggct (CTTCTGAGGGGGGTTTGGCT; antisense; DNA, all phosphorothioate, methylation of C not given here)	+ (“+” when the suppression rate was at least 30%)
H143: ttggcttacaggtcccctgg (TTGGCTTACAGGTCCCCTGG; antisense; DNA, all phosphorothioate, methylation of C not given here)	+ (“+” when the suppression rate was at least 30%)
H144 + 5: gcaggcagaggcttctgagg (GCAGGCAGAGGCTTCTGAGG; antisense; DNA, all phosphorothioate, methylation of C not given here)	++ (“++” when the suppression rate was at least 50%)
H144 + 6: tgcaggcagaggcttctgag (TGCAGGCAGAGGCTTCTGAG; antisense; DNA, all phosphorothioate, methylation of C not given here)	++ (“++” when the suppression rate was at least 50%)
H144 + 7: ctgcaggcagaggcttctga (CTGCAGGCAGAGGCTTCTGA; antisense; DNA, all phosphorothioate, methylation of C not given here)	++ (“++” when the suppression rate was at least 50%)
H144 + 8: tctgcaggcagaggcttctg (TCTGCAGGCAGAGGCTTCTG; antisense; DNA, all phosphorothioate, methylation of C not given here)	+ (“+” when the suppression rate was at least 30%)
H144 + 9: atctgcaggcagaggcttct (ATCTGCAGGCAGAGGCTTCT; antisense; DNA, all phosphorothioate, methylation of C not given here)	+ (“+” when the suppression rate was at least 30%)
H144 + 10: gatctgcaggcagaggcttc (GATCTGCAGGCAGAGGCTTC; antisense; DNA, all phosphorothioate, methylation of C not given here)	+++ (“+++” when the suppression rate was at least 70%)
H144 + 11: ggatctgcaggcagaggctt (GGATCTGCAGGCAGAGGCTT; antisense; DNA, all phosphorothioate, methylation of C not given here)	++ (“++” when the suppression rate was at least 50%)
H144 + 12: aggatctgcaggcagaggct (AGGATCTGCAGGCAGAGGCT; antisense; DNA, all phosphorothioate, methylation of C not given here)	+++ (“+++” when the suppression rate was at least 70%)
H144 + 13: gaggatctgcaggcagaggc (GAGGATCTGCAGGCAGAGGC; antisense; DNA, all phosphorothioate, methylation of C not given here)	++ (“++” when the suppression rate was at least 50%)
H144 + 14: agaggatctgcaggcagagg (AGAGGATCTGCAGGCAGAGG; antisense; DNA, all phosphorothioate, methylation of C not given here)	++ (“++” when the suppression rate was at least 50%)
H144 + 15: cagaggatctgcaggcagag (CAGAGGATCTGCAGGCAGAG; antisense; DNA, all phosphorothioate, methylation of C not given here)	+ (“+” when the suppression rate was at least 30%)
H144 + 16: ccagaggatctgcaggcaga (CCAGAGGATCTGCAGGCAGA; antisense; DNA, all phosphorothioate, methylation of C not given here)	++ (“++” when the suppression rate was at least 50%)
H144 + 17: gccagaggatctgcaggcag (GCCAGAGGATCTGCAGGCAG; antisense; DNA, all phosphorothioate, methylation of C not given here)	+++ (“+++” when the suppression rate was at least 70%)
H144 + 19: tggccagaggatctgcaggc (TGGCCAGAGGATCTGCAGGC; antisense; DNA, all phosphorothioate, methylation of C not given here)	+++ (“+++” when the suppression rate was at least 70%)

same assay, conditions: 200 nM; RD cell; corrected by GAPDH

Substance	suppression rate of expression, 200 nM
H138: cactcgctgagttgactggg (CACTCGCTGAGTTGACTGGG; antisense; DNA, all phosphorothioate, methylation of C not given here)	+++ (“+++” when the suppression rate was at least 70%)
H139: gcccggtggaggggaggaag (GCCCGGTGGAGGGGAGGAAG; antisense; DNA, all phosphorothioate, methylation of C not given here)	+++ (“+++” when the suppression rate was at least 70%)
H140: ggacgctaggtgcacgtggg (GGACGCTAGGTGCACGTGGG; antisense; DNA, all phosphorothioate, methylation of C not given here)	+++ (“+++” when the suppression rate was at least 70%)
H141: ggctggcaggggtctggcag (GGCTGGCAGGGGTCTGGCAG; antisense; DNA, all phosphorothioate, methylation of C not given here)	++ (“++” when the suppression rate was at least 50%)
H142: gcctgcctaagtgcaggctt (GCCTGCCTAAGTGCAGGCTT; antisense; DNA, all phosphorothioate, methylation of C not given here)	++ (“++” when the suppression rate was at least 50%)
H143: ttggcttacaggtcccctgg (TTGGCTTACAGGTCCCCTGG; antisense; DNA, all phosphorothioate, methylation of C not given here)	+++ (“+++” when the suppression rate was at least 70%)
